According to PubChem BioAssay AID463206 (Broad Institute, 2010):
Values joined by “and” are separate entries in the source; they are usually repeats but may differ in a detail not shown here. Equal values may be shown once. Active and inactive are the calls of the source.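 The calls were made as follows: active = caspase luminescence falls with dose and the half-maximal concentration AC50 from the fitted curve is at or below a set limit; inconclusive = flat fit at 30 to 70% signal loss, or invalid fit; inactive = AC50 above the limit, or signal rises instead.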

Each compound was assayed on INS-1E cytokine-induced caspase-3/7, Caspase-Glo luminescence, 48 h (assay: inhibitors of cytokine-induced caspase-3/7 activity, dose response, orthogonal assay for beta-cell apoptosis protection project, INS-1E rat cells, luminescence (AID 463206)).

SMILES | AC50
CCc1c(C2(O)CCCCC2)[nH]c2cc(C(F)(F)F)ccc12 | > 26 µM (inactive)
CCc1ccc(S(=O)(=O)Nc2ccc(O)c3ccccc23)cc1 | > 26 µM (inactive)
O=C1C=C(N2CCOCC2)c2ccccc2C1=O | > 26 µM (inactive)
COc1ccc(NC(=O)CN(C)C(=O)/C=C/c2ccc(S(=O)(=O)N3CCCCCC3)cc2)cc1 | > 26 µM (inactive)
O=C(Nc1ccc([N+](=O)[O-])cc1)Nc1nc(-c2ccc(Cl)s2)cs1 | > 26 µM (inactive)
Cc1occc(=O)c1OC(=O)Nc1ccc(Cl)c(Cl)c1 | > 26 µM (inactive)
Fc1cc(F)c2nc(Nc3nc4c(F)cccc4s3)sc2c1 | > 26 µM (inactive)
O=C(CN1CC[n+]2c(-c3cccs3)csc21)c1ccc(-c2ccccc2)cc1 | > 26 µM (inactive)
O=C(C#Cc1ccccc1)Nc1cccc(F)c1 | > 26 µM (inactive)
Oc1ccc2ccccc2c1N=Nc1ccccn1 | > 26 µM (inactive)
O=C(CCC(=O)Nc1ccc(Cl)cc1Cl)N/N=C/c1ccc([N+](=O)[O-])o1 | > 26 µM (inactive)
COc1ccc(C[C@H]2CN3C(=NC[C@@H]3Cc3ccccc3)N2CCNC(=O)CCC2CCCCC2)cc1 | > 26 µM (inactive)
Cc1cccc(NC(=O)/C=C/c2ccc([N+](=O)[O-])s2)c1 | 2.71 µM
O=C(CN1C(=O)c2ccccc2S1(=O)=O)c1ccc(F)cc1 | > 26 µM (inactive)
CCCCCc1cc(=O)oc2c(C(CCN3CCCCC3)c3ccc4c(c3)OCO4)c(OC)cc(OC)c12 (stereo not given) | > 26 µM (inactive)
CCCCCCCCCCOC(=O)Cn1c(COc2ccccc2)[n+](C)c2ccccc21 | > 26 µM (inactive)
C#CC(=O)N(c1cccc(OC)c1)C(C(=O)NC1CCCC1)c1cccs1 (stereo not given) | > 26 µM (inactive)
CCCC(=O)N(CCN(C(=O)CCC)c1ccccc1)c1ccccc1 | > 26 µM (inactive)
N/C(=N\OC(=O)c1cccc(Cn2cc(C(F)(F)F)ccc2=O)c1)c1ccccc1 | > 26 µM (inactive)
Cc1ccc(-c2cc(-c3ccc(C)cc3)[n+](-c3ccc(C(=O)[O-])cc3)c(-c3ccc(C)cc3)c2)cc1 | > 26 µM (inactive)
COC(=O)c1ccccc1NC1=C/C(=N\S(=O)(=O)c2cccs2)c2ccccc2C1=O | > 26 µM (inactive)
COc1ccc(-[n+]2c(C)cc(/C=C3\Sc4ccccc4N3C)cc2C)cc1 | > 26 µM (inactive)
Cn1c(=O)[nH]c(=O)c2c1nc([N+](=O)[O-])n2Cc1ccccc1 | > 26 µM (inactive)
CC1(C)Cc2c(c(N3CCOCC3)nc3sc4c(NN)ncnc4c23)CS1 | > 26 µM (inactive)

SMILES | AC50
CN1CCN(c2ccc(CNS(=O)(=O)Cc3cccc(C(F)(F)F)c3)cc2)CC1 | > 26 µM (inactive)
O=C(NNC(=O)c1cccnc1SCc1cccc([N+](=O)[O-])c1)c1ccc(F)cc1 | > 26 µM (inactive)
O=C(N/N=C(\c1ccccc1)c1cccnc1)c1cccc(F)c1 | > 26 µM (inactive)
c1ccc(CNc2nc(NCc3ccccc3)c3ccccc3n2)cc1 | > 26 µM (inactive)
CC(=O)NC(c1cccc([N+](=O)[O-])c1)c1ccc2cccnc2c1O (stereo not given) | > 26 µM (inactive)
CCC1CCCCN1C(=O)c1cc(COc2ccc(-n3cncn3)cc2)on1 (stereo not given) | > 26 µM (inactive)
O=C(Nc1nc2ccc(F)cc2s1)c1ccccn1 | > 26 µM (inactive)
CCO[C@H]1OC(C(=O)N2CCN(Cc3ccc4c(c3)OCO4)CC2)=C[C@@H](c2csc3ccccc23)[C@@H]1CCCO | > 26 µM (inactive)
CC1CCN(C(=O)CCNS(=O)(=O)c2ccc(Br)cc2)CC1 | > 26 µM (inactive)
COC(=O)c1ccccc1NC1=C/C(=N\S(=O)(=O)c2ccc(C(=O)O)cc2)c2ccccc2C1=O | > 26 µM (inactive)
CNc1nc2cc([N+](=O)[O-])c([N+](=O)[O-])cc2nc1NC | > 26 µM (inactive)
O=C(NNc1c(Cl)cc(Cl)cc1Cl)c1cccc([N+](=O)[O-])c1 | > 26 µM (inactive)
CCCC(=O)NC(c1ccc(Cl)cc1Cl)c1ccc2cccnc2c1O (stereo not given) | > 12 µM (inactive)
Cc1cc(C(=O)CSc2nc3ccccc3c(=O)n2C)c(C)n1Cc1ccc2c(c1)OCO2 | > 26 µM (inactive)
O=S(=O)(Nc1nc2ccccc2s1)c1ccc(Cl)s1 | > 26 µM (inactive)
Cc1ccccc1-[n+]1c(-c2ccccc2)cc(-c2ccccc2)cc1-c1ccccc1 | > 26 µM (inactive)
Cc1csc2ncnc(N3CCN(S(=O)(=O)c4cccc(C(F)(F)F)c4)CC3)c12 | > 26 µM (inactive)
O=C1/C(=C\c2cccnc2)CN(Cc2ccccc2)C/C1=C\c1cccnc1 | > 26 µM (inactive)
CC1CCCCC1NS(=O)(=O)c1ccc(S(=O)(=O)NCc2ccncc2)cc1 (stereo not given) | > 26 µM (inactive)
Cc1ccc(-c2sc(-c3ccccc3)nc2CC(=O)Nc2ccccc2F)cc1 | > 26 µM (inactive)
COc1ccc(-n2c(-c3ccc(Cl)cc3)c[n+]3c2CCc2ccccc2-3)cc1 | > 26 µM (inactive)
CN(C)S(=O)(=O)c1cccc(CSCc2cccc(S(=O)(=O)N(C)C)c2)c1 | > 26 µM (inactive)
CCOC(=O)c1cnc(-n2nc(C)cc2C)nc1NNc1nc(-c2ccccc2)cc(-c2ccccc2)n1 | > 26 µM (inactive)
CC(=O)Nc1sc2c(c1-c1nc3ccccc3s1)CCN(C(C)C)C2 | 3.1 µM

SMILES | AC50
COc1ccc(-n2c(-c3ccc(Br)cc3)c[n+]3c2CCc2ccccc2-3)cc1 | > 26 µM (inactive)
CCS(=O)(=O)c1ncc(Cl)c(C(=O)Nc2ccc(S(=O)(=O)N(C)c3ccccc3)cc2)n1 | > 26 µM (inactive)
C(C#CCCCCCCCCC[n+]1ccccc1)#CCCCCCCCCC[n+]1ccccc1 | > 26 µM (inactive)
CCc1ccc(OCC(=O)NC(NC(=S)Nc2ccc(C)cc2C)C(Cl)(Cl)Cl)cc1 (stereo not given) | > 26 µM (inactive)
Oc1c(Br)cc(Br)cc1/C=N/NC(=S)N[C@H]1CC2C=CC1C2 (stereo not given in full) | > 26 µM (inactive)
O=C(N/N=C/c1cc(Cl)ccc1O)c1ccc(Br)cc1 | > 26 µM (inactive)
C(=N\Nc1ncnc2sc3c(c12)CCC3)/c1cccs1 | > 26 µM (inactive)
c1cnc(N2CCN(Cc3c[nH]c4ccccc34)CC2)nc1 | > 26 µM (inactive)
NS(=O)(=O)c1ccc(N=Nc2ccc(O)c3ncccc23)cc1 | > 26 µM (inactive)
Cc1cc(C2CCCCC2)n(O)c(=O)c1 | > 26 µM (inactive)
Cc1ccc(S(=O)(=O)NCc2ccncc2)cc1C | > 26 µM (inactive)
CCN1CCN(Cc2ccc(NC(=O)c3ccc(C)c(NC(=O)C(=O)c4c[nH]c5ccccc45)c3)cc2C(F)(F)F)CC1 | > 12 µM (inactive) and > 26 µM (inactive)
Cc1sc2ncnc(N3CCN(CCOc4ccc(Cl)cc4)CC3)c2c1C | > 26 µM (inactive)
CCCCCc1ccc(OCCCC[n+]2cccc(C)c2)c(CCCCC)c1 | > 26 µM (inactive)
COc1cccc(/C=N/Nc2snc(SC)c2C#N)c1O | > 26 µM (inactive)
CN(C)CCCNc1cc(C(C)(C)C)nc2c(-c3ccccc3)cnn12 | > 26 µM (inactive)
NNC(=S)Nc1ccc(OC(F)(F)F)cc1 | > 26 µM (inactive)
CCC(C)c1ccc(NC(=S)NC2CCN(Cc3ccccc3)CC2)cc1 (stereo not given) | > 26 µM (inactive)
N#Cc1c(Nc2ccccc2)sc(C(=O)c2ccc(F)cc2)c1N | > 26 µM (inactive)
Cn1c(-c2ccccc2)cc2c3no[n+]([O-])c3ccc21 | > 26 µM (inactive)
O=C1/C(=N\S(=O)(=O)c2cccs2)C([n+]2cccc(Cc3ccccc3)c2)=C([O-])c2ccccc21 | > 26 µM (inactive)
Cc1ccccc1Nc1c(-c2ccccn2)nc2c(C)cccn12 | > 26 µM (inactive)
CCCCCCCCCn1c2c(c(=N)c3c1CCC3)CCC2 | > 12 µM (inactive)
O=C(CN(Cc1ccco1)Cc1ccco1)Nc1cc(S(=O)(=O)N2CCCCC2)ccc1Cl | > 26 µM (inactive)

SMILES | AC50
CCCCCCC[n+]1ccc(-c2cc[n+](CCCCCCC)cc2)cc1 | > 26 µM (inactive)
CCC(C)(C)c1ccc(OCCCC[n+]2cccc(C)c2C)c(C(C)(C)CC)c1 | > 26 µM (inactive)
NC(N)=N/N=C/c1ccc(OCc2ccccc2)cc1 | > 26 µM (inactive)
Cc1cc(C)c2sc(NNC(=O)c3ccc(S(=O)(=O)N4CCc5ccccc5C4)cc3)nc2c1 | > 26 µM (inactive)
Cc1sc2cc3c(c(C(=O)c4ccccc4)[n+]2c1C)-c1cccc2cccc-3c12 | > 26 µM (inactive)
C[n+]1c2n(c3ccccc31)N=C(c1ccc(Cl)cc1)CS2 | > 26 µM (inactive)
Cc1cc(C)nc(SCC(=O)NC2=NN=C(c3ccc(Br)cc3)CS2)n1 | > 26 µM (inactive)
Cn1cccc1C1C=C(c2ccc(C(C)(C)C)cc2)Nc2ncnn21 (stereo not given) | > 26 µM (inactive)
Cc1ccc(O)c(N=Nc2nccs2)c1 | > 26 µM (inactive)
O=C(c1ccccc1)C(CN1CCCC1)c1ccccc1 (stereo not given) | > 26 µM (inactive)
O=C(Nc1nc2ccccc2s1)c1cc(-c2ccccc2)nn1-c1ccccc1 | > 26 µM (inactive)
COc1ccc(N/N=C/c2c(C(=O)O)ccc3ccccc23)cc1 | > 26 µM (inactive)
CCOC(=O)C(C(C)=O)c1c(Br)c(O)c(O)c2c(C(=O)c3ccc(C)cc3)coc12 (stereo not given) | > 26 µM (inactive)
Nc1nc(-c2ccccn2)nc(N)c1Cc1c(F)cccc1Cl | > 26 µM (inactive)
Cc1nc2ccccc2n1/N=C/c1ccc([N+](=O)[O-])s1 | > 26 µM (inactive)
Cc1ccc(S(=O)(=O)CC2CSc3nc4ccccc4n32)cc1 (stereo not given) | > 12 µM (inactive)
COc1ccccc1C(NC(C)=O)c1cc(Cl)c2cccnc2c1O (stereo not given) | > 26 µM (inactive)
Cc1nc(NC(=O)C23CC4CC(CC(C4)C2)C3)sc1Cc1ccc2c(c1)OCO2 | > 26 µM (inactive)
COc1ccccc1NC(=O)c1cc2cc(Br)ccc2cc1O | > 26 µM (inactive)
C=CCc1c(C)nc(C)nc1N/N=C/c1ccc(N(C)C)cc1 | > 26 µM (inactive)
CCN1CCN(c2ccc(S(=O)(=O)N3CCCCC3)cc2NC(=O)c2ccc([N+](=O)[O-])o2)CC1 | > 26 µM (inactive)
COc1cccc(CNCCc2c[nH]c3ccccc23)c1OCc1ccccc1F | > 26 µM (inactive)
N#Cc1c([N+](=O)[O-])cc([N+](=O)[O-])cc1S(=O)(=O)Cc1ccccc1 | > 26 µM (inactive)
